The results in this text go back to patent publication US12678440B2, “Compositions and methods for treating misfolded protein ocular disorders” (CASE WESTERN RESERVE UNIVERSITY, priority 2020, dated 2026).

Structures are written as SMILES.

The subject of assay [1] is WT mouse rhodopsin fused with Renilla luciferase (Rluc). Nature of the assay: Rluc reporter counter screen in Hek293 (RHO^WT-Rluc) cells. Type of assay: cell-based. The following applies: for Efficacy, Rluc assay Hek293 (RHO^WT − Rluc): 24 h, DMSO 0%, Evans Blue −100% controls; for EC50: 24 h compound treatment, dose-response, triplicate. The text has this: Two Hek293 stable cell lines, Hek293 (RHO^WT-Rluc) and Hek293 (RHO^P23H-Rluc) cells were generated which stably express the WT and P23H mutant mouse rhodopsin each fused with a Renilla luciferase (Rluc) for the luciferase reporter assay as previously described. Briefly, the Hek 293 cells (ATCC, Manassas, VA, USA) were transfected with the pcDNA3.1 Zeo containing the cDNA of mouse WT or P23H rhodopsin fused with a Rluc 8 (a gift from Dr. Navine Lambert at Augusta University, Augusta, GA USA) and transfected cells were incubated in Dulbecco's modified Eagle's medium (DMEM, Genesee Scientific, E1 Cajon, CA USA) with 10% fetal bovine serum (FBS, Gibco Laboratories, Gaithersburg, MD USA) for 48 h before addition of 400 μg/mL of Zeocin (InvivoGen, San Diego, CA USA) for positive clone selection. Colonies of cells survived from 1 week of Zeocin selection were collected, and expression of WT and P23H rhodopsin were confirmed by a luciferase assay and immunoblotting of rhodopsin with positive bands of monomers at about 70 kD (FIG. 8). The difference of molecular masses between WT and P23H rhodopsin proteins was due to differences in glycosylation, which was also seen in the NIH3T3 cells expressing the WT and P23H rhodopsin proteins.
The HTS was performed at three facilities, including University of Cincinnati (UC), Case Western Reserve University, and National Center for Advancing Translational Sciences (NCATS), testing a total of six compound collections. These compound collections include: 1) the UC 10K Diversity Set (10,011 compounds), 2) the Life Chemicals 50K Collection (50,560), 3) the Spectrum Collection (2,400 compounds), 4) the LOPAC collection (1,280 compounds), 5) the FDA collection (2,816 compounds), and 6) the NCATS MIPE collection (1,912 compounds). […] For the compound collections 1), 2) and 3), we firstly tested each compound using the P23H rhodopsin luciferase reporter assay at a single dose for once (9.93 to 16.13 μM) in 384-well format, and we identified 2072 compounds with activity scores lower than the cutoff at mean-2SD. Activity scores were normalized using DMSO treated cells as 0% control and the 1 mM Evans Blue treated cells as −100% control. From these hit compounds, we excluded those reported with luciferase inhibitor activities and cherry-picked the rest for hit confirmation. Each hit was tested at 10 μM in the Hek293 (RHO^P23H-Rluc) cells again by the luciferase reporter assay in triplicates, and the confirmed hits with activity scores lower than-50% were then counter screened for their effects on Rluc activity by the recombinant Rluc activity assay, and on WT rhodopsin level by the luciferase reporter assay in the Hek293 (RHO^WT-Rluc) cells at 10 μM in triplicates, respectively. […] Next, we tested the dose responses of these confirmed hits in both the Hek293 (RHO^P23H-Rluc) and the Hek293 (RHO^WT-Rluc) cells and identified compounds that selectively favored the clearance of P23H than WT rhodopsin in a dose-dependent manner (Table 4). For the compound collections 4)-6), we tested each compound directly at 7 or 11 doses using the luciferase reporter assay in the Hek293 (RHO^P23H-Rluc) cells in 1536-well format, and identified 128 compounds with efficacy smaller than-50% and EC50<20 μM.
The Rluc reporter assay has been described before. HTS was undertaken in 384-well format for the UC 10K Diversity Set, Spectrum Collection and the Life Chemicals 50K diversity set, and in 1536-well format for the FDA, LOPAC, and MIPE collections. Using the 384-well format as an example, Hek (RHO^P23H-Rluc) cells were seeded in 384-well white-wall clear-bottom plates (assay plates) at 3×10^5/mL for 40 μL/well by an 8-channel Multiflo liquid dispenser (Bioteck, Winooski, VT USA). The assay plates were centrifuged at 300×g for 30 s and cultured at 37° C. with 5% CO2 overnight. […]
For orientation: A counterscreen serves to expose hits that act by an unwanted route or on another target.

The next assay has as its system P23H rhodopsin. The assay is described as follows: Rhodopsin dot blot of NIH3T3 stable cells. Type of assay: cell-based. As to conditions: 10 μM, 24 h, vs DMSO. The protocol: NIH3T3 (RHO^P23H/GFP) or NIH3T3 (RHO^WT/GFP) cells were seeded at 2.5×10^4 cells/well in 100 μL/well complete medium in a 96-well plate and cultured at 37° C. with 5% CO2 for 4 h. Cells then were treated with 100 μL/well complete medium containing 2×the final concentration of tested compounds. After 24 h of further incubation at 37° C. with 5% CO2, the medium was aspirated, and the cells were washed once with PBS. The cell lysis buffer containing radioimmunoprecipitation assay (RIPA) buffer and complete protease inhibitor cocktail (Roche Diagnostics, Basel, Switzerland) were added to the cells at 200 μL/well followed by sonication for 6 s. Because the cellular protein level of RHO^WT was higher than RHO^P23H, 5% of one well NIH3T3 (RHO^WT/GFP) cells samples and 90% of one well NIH3T3 (RHO^P23H/GFP) cells samples were loaded to a nitrocellulose membrane and air-dried. Opsin protein was immunostained with 0.1 μg/mL HRP-conjugated 1D4 anti-rhodopsin antibody. Densitometry of the bands was measured by the ImageJ software and normalized to DMSO-treating control.

As for `CC(O)CN` (stereo not shown) [CL-004], in assay [1], the “Efficacy, Rluc assay Hek293 (RHO^WT − Rluc)” value (“Efficacy, Rluc assay Hek293” below) is −45.5% and a half-maximal effect (EC50) was put at 920 nM. For the same compound, the “Rho protein level (Dot blot)” value with P23H rhodopsin was “Down”.

As to `CC(=O)OC(CC(=O)[O-])C[N+](C)(C)C` (stereo not shown) [CL-001], in assay [1], the “Efficacy, Rluc assay Hek293” value is recorded as −44.3% and the EC50 (usually the midpoint of the concentration-response curve) was 1000 nM. In the assay on P23H rhodopsin, the “Rho protein level (Dot blot)” value is on record as “Down”.

Regarding `O=C(O)C1=CC=CC(O)C1O` (stereo not shown) [CL-003], in assay [1], the “Efficacy, Rluc assay Hek293” value is on record as −37.7% and a half-maximal response (EC50) required 1500 nM. The “Rho protein level (Dot blot)” value in the assay with P23H rhodopsin was “Down”.

For the compound `CCn1cnc2c(N)ncnc21` [CL-007], in assay [1], the “Efficacy, Rluc assay Hek293” value was −51.7% and the EC50 was 11000 nM. Besides, the “Rho protein level (Dot blot)” value in the assay on P23H rhodopsin was “Down”.

As for `CN(Cc1cnc2nc(N)nc(N)c2n1)c1ccc(C(=O)N[C@@H](CCC(=O)O)C(=O)O)cc1` [CL-009, N-[4-[[(2,4-diamino-6-pteridinyl)methyl]methylamino]benzoyl]-L-glutamic acid], the “Rho protein level (Dot blot)” value with P23H rhodopsin was “Down”.

`NCC(=O)COP(=O)(O)O` [CL-005]: in assay [1], the “Efficacy, Rluc assay Hek293” value is listed as −57.9% and the EC50 was 4200 nM. The “Rho protein level (Dot blot)” value in the assay on P23H rhodopsin is on record as “Down”.

On to `CC(=O)OC(CC(=O)O)C[N+](C)(C)C` (stereo not shown) [CL-002], for which, in assay [1], the “Efficacy, Rluc assay Hek293” value was −62.0% and the EC50 was 3400 nM. The “Rho protein level (Dot blot)” value in the assay with P23H rhodopsin is recorded as “Down”.

`CCC(C)(O)C(O)C(=O)O` (stereo not shown) [CL-008]: in assay [1], the “Efficacy, Rluc assay Hek293” value is on record as −52.7% and a half-maximal effect (EC50) was put at 590 nM. Further, the “Rho protein level (Dot blot)” value with P23H rhodopsin is reported as “Down”.

Turning to `O=C(NC1CCNCC1)c1n[nH]cc1NC(=O)c1c(Cl)cccc1Cl` [CL-006], in assay [1], the “Efficacy, Rluc assay Hek293” value is −42.9% and the EC50 was 1520 nM. Further, the “Rho protein level (Dot blot)” value in the assay on P23H rhodopsin is “Down”.
